Source: patent US10391196B2, “Prefabricated alginate-drug bandages” (President and Fellows of Harvard College, priority 2013, dated 2019)
“Also recorded” adds a separate entry of the source.

Experiments:
[1] = Release of model drugs from 4% (w/v) alginate pieces; assay type: physicochemical; conditions: 4% (w/v) alginate pieces 8 mm diameter, 2 mm thick, cross-linked 15 minutes
Protocol: Drug release was recorded for 4% (w/v) alginate pieces 8 mm in diameter and 2 mm in thickness that were cross-linked for 15 minutes. […] (Sample size of study n=3 per time point).

[2] = Substance P release from alginate bandage sheets in PBS, measured by ELISA; assay type: physicochemical; conditions: 2% (w/v) and 4% (w/v) bandaging sheets; 8 mm diameter, 2 mm thick sample in 2 mls PBS
Protocol: The release was performed by placing the bandage sample of 8 mm diameter and 2 mm thickness in 2 mls of PBS and moving it to a new solution at defined time intervals. The release was examined using a commercially available ELISA assay. […] The sheets incorporate either 32 μg or 64 μg of Substance P with a given processing loss (Sample size n=3 per time point). Small molecule compounds (less than 1000 daltons) are typically added to the composition in a volume of 250 μl for a dressing that is about 12 mm in diameter and 2 mm thick. Thus, substance P was added at 128 μg/ml at the low concentration and 256 μg/ml at the higher concentration. Actual clinical doses are the same or similar. Since small molecules may diffuse out of the dressing quickly, it is advantageous for small molecules to have an affinity for the alginate, e.g., since alginate is negatively charged, positively charged small molecule drugs elute at a clinically acceptable and beneficial rate (and consistent with standard practice for changing of wound dressings). For example, substance P is slightly positively charged and is therefore attracted to the alginate. Charge is less or not relevant for larger molecules, e.g., BSA. Generally, the dose is determined based on the therapeutic dose of the drug. For example, VEGF is administered to the dressing at about 50 μg/ml (3 μg in 60 μl of liquid).

Row | loss during wetting step [1] [%] | Compound | release profile from the alginate dressing material [1] | duration of sustained release of the peptide from the bandage [2]
1 | – | O=C1c2c(O)ccc(O)c2C(=O)c2c(NCCNCCO)ccc(NCCNCCO)c21 [mitoxantrone, Mitoxantrone] | sustained release from the scaffold, which is still ongoing at the termination of the experiment | –
2 | – | Arg-Pro-Lys-Pro-Gln-Gln-Phe-Phe-Gly-Leu-Met [Substance P] | – | at least 3 days
3 | 24 | Cc1cc(-c2ccc(/N=N/c3c(S(=O)(=O)O)cc4cc(S(=O)(=O)O)cc(N)c4c3O)c(C)c2)ccc1/N=N/c1c(S(=O)(=O)O)cc2cc(S(=O)(=O)O)cc(N)c2c1O [trypan blue dye, Trypan blue] | lost very rapidly; also recorded: the majority within one day | –
